Reference: patent US6153434A, “Methods for the intracellular delivery of substances” (University of Florida, priority 1999, dated 2000)

Tests used:
[1] = system: CHO cells; experiment: Transfection of pGL3-luciferase plasmid; format: cell-based, Chinese hamster
Method: (§1) FIGS. 5A and 5B show a comparison of the transfection of pGL3-luciferase plasmid by CHDTAEA/DOPE, CHSTAEA/DOPE, and DC-Chol in CHO and SKnSH cells. A fixed dose 2 μg/well of pGL3 DNA was mixed with increasing weight ratios of cationic liposomes (calculation based on cationic lipid) and used for transfection. FIG. 5A: Transfection in CHO cells, FIG. 5B: Transfection in SKnSH cells. .diamond-solid.CHDTAEA/DOPE, .box-solid.CHSTAEA/DOPE; .tangle-solidup.DC-Chol/DOPE. Data is shown as mean (S. D. (n=3).
(§2) Cell culture and gene transfection using CHDTAEA and CHSTAEA: Chinese hamster ovary (CHO) and SKnSH cells were obtained from American Tissue Type Collection (Rockville, Md.). […] DNA/liposome complexes in 100 (L of serum free media were added to each well and incubated for 4.5 hours. After the 4.5-hour transfection time, the transfection media were changed to growth media and cells were incubated for another 24 hours. Luciferase activity was measured using a standard luciferase assay (Thierry, A. R., P. Rabinovich, B. Peng, L. C. Mahan, J. L. Bryant, R. C. Gallo (1997) Gene Ther 4:226-237). Luciferase activity in transfected cells was expressed as RLU per well. All conditions for transfection were strictly kept the same for each different kind of liposomes. Experiments were repeated at least twice, and experiments were done in triplicate within a given series.

[2] = system: plasmid DNA; experiment: Dissociation of DNA from DNA/liposome complexes by glutathione, agarose gel electrophoresis; format: physicochemical; details: presence of glutathione
Method: Dissociation of DNA from DNA/liposome complexes by glutathione: One μg of plasmid DNA was dissolved in 10 (L of phosphate-buffer saline (PBS). Cationic liposomes […] or CHSTAEA/DOPE were added to pDNA solution at the increasing weight ratios of 2/1, respectively. All calculations of the weight of liposomes in this paper were based on the weight of cationic lipids only. After the complexes were incubated for 30 minutes at room temperature, 10 (L of 20 mM of glutathione in PBS (pH=7.3) was added to the mixture to reach a final concentration of glutathione of 10 mM. The mixtures were incubated at 37° C. for 20 hours. Released DNA was visualized by 1% agarose gel electrophoresis.
DNA was complexed with a disulfide cationic liposome CHDTAEA/DOPE or its non-disulfide cationic liposome analog CHSTAEA/DOPE at the cationic lipid to DNA ratio of 2/1. […] In the presence of 10 mM of glutathione, >50% of DNA was released from complexes after the incubation. […] The complexes with the ratios of cationic liposome/DNA from 3/1 to 5/1 were also tested in the release assay with similar same results.

[3] = system: SKnSH cells; experiment: Transfection of pGL3-luciferase plasmid; format: cell-based
Method: as §1, §2

CC(C)CCC[C@@H](C)[C@H]1CC[C@H]2[C@@H]3CC=C4C[C@@H](OC(=O)CSSCC(=O)NCCN(CCN)CCN)CC[C@]4(C)[C@H]3CC[C@]12C [CHDTAEA, Cholesteryl hemidithiodiglycolyl tris(aminoethyl)amine]
transfection activity vs non-disulfide analog CHSTAEA [1]: greater transfection activity than its non-disulfide analog CHSTAEA | release of complexed DNA [2]: released more than half of complexed DNA | transfection activity vs non-disulfide analog CHSTAEA [3]: greater transfection activity than its non-disulfide analog CHSTAEA
